Experimental data: article PMC6792352, “Limited Chemical Structural Diversity Found to Modulate Thyroid Hormone Receptor in the Tox21 Chemical Library” (Environmental Health Perspectives, 2019)
Structures can show the parent of a compound that is named as a salt. Residues, ends and D or L forms follow the SMILES beside them.

assay: in vitro; conditions: rat, gh3-tre-luc cells, AC50 (uM) modified / 1000

Structure (SMILES)	CC50 at 24 h
C=CCN1CC[C@]23CCCC[C@H]2[C@H]1Cc1ccc(O)cc13 [Levallorphan]	28.6 µM
CCC(C)SSC(C)CC (stereo not shown) [Dibutan-2-yl disulfide]	> 90 µM
CC(C)OC(=O)c1ccccc1 [Propan-2-yl benzoate]	> 100 µM
CN(CCOc1ccc(NS(C)(=O)=O)cc1)CCc1ccc(NS(C)(=O)=O)cc1 [Dofetilide]	> 50 µM
CC(CO)(CO)[N+](=O)[O-] [2-Methyl-2-nitro-1,3-propanediol]	> 90 µM
Nc1nc2ncc(CNc3ccc(C(=O)N[C@@H](CCC(=O)O)C(=O)O)cc3)nc2c(=O)[nH]1 [Folic acid]	> 90 µM
Cn1cc(NC(=O)c2cc(NC(=O)c3cc(NC=O)cn3C)cn2C)cc1C(=O)NCCC(=N)N [Stallimycin]	> 50 µM
Fc1ccc(C(c2ccc(F)cc2)N2CCN(C/C=C/c3ccccc3)CC2)cc1 [Flunarizine]	12.3 µM
O=C(O)Cn1c(C(=O)Nc2nc(-c3ccccc3Cl)cs2)cc2ccccc21 [Lintitript]	> 50 µM
CCOC(=O)CC1(C)OCC(C)O1 (stereo not shown) [Ethyl 2,4-dimethyl-1,3-dioxolane-2-acetate]	> 90 µM
CCN(CC)CCOc1ccc2c(c1)C(=O)c1cc(OCCN(CC)CC)ccc1-2 [Tilorone]	> 50 µM
CC(=O)Nc1ncc([N+](=O)[O-])s1 [Nithiamide]	> 50 µM
CCN1CCC[C@H]1CNC(=O)c1cc(S(N)(=O)=O)ccc1OC [Levosulpiride]	> 50 µM
NCCS(=O)(=O)O [l-Taurine]	29.5 µM
CC(C)C(=O)OCCOc1ccccc1 [Phenoxyethyl isobutyrate]	> 90 µM
CS(=O)(=O)c1ccc(C(=O)C2C(=O)CCCC2=O)c([N+](=O)[O-])c1 [Mesotrione]	> 90 µM
CCCCCCCCCCCCCN1CC(C)OC(C)C1 (stereo not shown) [Tridemorph]	> 90 µM
Cc1ccc(S(=O)(=O)NC(=O)NC2CCCCC2)cc1 [Glycyclamide]	> 50 µM
CC(C)OB(OC(C)C)OC(C)C [Triisopropyl orthoborate]	> 90 µM
CC1CCc2nccnc21 (stereo not shown) [5H-5-Methyl-6,7-dihydrocyclopenta[b]pyrazine]	> 90 µM

Structure (SMILES)	CC50 at 24 h
COc1ccc(S(=O)(=O)N2c3ccc(Cl)cc3[C@](O)(c3ccccc3Cl)[C@@H]2C(=O)N2CCC[C@H]2C(N)=O)cc1OC [Relcovaptan]	> 50 µM
CC(=O)O[C@H]1CC[C@@]2(C)C(=CC[C@@H]3[C@@H]2CC[C@]2(C)C(c4cccnc4)=CC[C@@H]32)C1 [Abiraterone acetate]	> 50 µM
O=c1oc2cc(O)ccc2c2oc3cc(O)ccc3c12 [Coumestrol]	> 90 µM
CN1[C@@H]2CC[C@H]1CC(OC1c3ccccc3CCc3ccccc31)C2 (stereo partly shown) [Deptropine citrate]	12.2 µM
Cc1cccc(C)c1NC(=O)CN1CCCC1=O [Nefiracetam]	> 50 µM
c1ccc2sc(SSc3nc4ccccc4s3)nc2c1 [2,2'-Dithiobisbenzothiazole]	> 50 µM
COC(=O)[C@H](Cc1ccccc1)NC(=O)[C@@H](N)CC(=O)O [Aspartame] (H-Asp-Phe-OMe)	> 90 µM
Cc1cccc(O)c1N [2-Amino-m-cresol]	66.6 µM
CCOC(=O)N(C)N=O [N-Nitroso-N-methylurethane]	> 90 µM
Nc1cc(S(=O)(=O)O)ccc1S(=O)(=O)O [2-Aminobenzene-1,4-disulfonic acid]	> 90 µM
CCCCC(CC)C(=O)OC(C)C (stereo not shown) [Propan-2-yl 2-ethylhexanoate]	> 90 µM
O=S1(=O)OC(c2ccc(O)cc2)(c2ccc(O)cc2)c2ccccc21 [Phenol Red sodium salt]	46.9 µM
O=C(O)c1ccccc1C(=O)OCc1ccccc1 [Monobenzyl phthalate]	> 90 µM
CCNC(=O)NC(=O)/C(C#N)=N/OC [Cymoxanil]	> 90 µM
CCC(C=O)CC [2-Ethylbutyraldehyde]	> 90 µM
Nc1nc[nH]n1 [Amitrole]	> 90 µM
C[C@@H]1C(=O)NC2=Nc3cccc(Cl)c3CN21 [Quazinone]	> 50 µM
Brc1ccccc1 [Bromobenzene]	> 90 µM
O=C(c1ccc(F)cc1)C1CCN(CCn2c(=S)[nH]c3ccccc3c2=O)CC1 [Altanserin hydrochloride]	> 50 µM
CCCCCCCCCCCC[N+](C)(C)CCCCCCCCCCCC [Didodecyldimethylammonium bromide]	12.2 µM

Structure (SMILES)	CC50 at 24 h
Cn1c(N)nc2nc[nH]c2c1=O [1-Methylguanine]	> 90 µM
Nc1ncnc2c1ncn2[C@@H]1O[C@H](COP(=O)(O)O)[C@@H](O)[C@H]1O [Adenosine 5'-phosphate]	> 50 µM
c1ccc2[nH]c(-c3cscn3)nc2c1 [Thiabendazole]	> 50 µM
CC(=O)OCC(=O)[C@@]1(O)CC[C@H]2[C@@H]3CCC4=CC(=O)CC[C@]4(C)C3=CC[C@@]21C [Anecortave acetate]	> 50 µM
CCOC(=O)[C@H](CCc1ccccc1)N[C@@H](C)C(=O)N1Cc2cc(OC)c(OC)cc2C[C@H]1C(=O)O [Moexipril hydrochloride]	> 50 µM
CCC(C)C1N=C(C)C(C)S1 (stereo not shown) [2-(2-Butyl)-4,5-dimethyl-3-thiazoline]	> 90 µM
O=C(CCCCC(=O)Nc1c(I)cc(I)c(C(=O)O)c1I)Nc1c(I)cc(I)c(C(=O)O)c1I [Iodipamide]	> 50 µM
CC(C)c1ccc(C=O)cc1 [4-Isopropylbenzaldehyde]	> 90 µM
CC[C@]1(O)CC[C@H]2[C@@H]3CCC4=CCCC[C@@H]4[C@H]3CC[C@@]21C [Ethylestrenol]	> 50 µM
C=C(C)C(=O)OC [Methyl methacrylate]	> 90 µM
OC(c1ccc(F)cc1)(c1cncnc1)c1ccccc1Cl (stereo not shown) [Nuarimol]	> 90 µM
Cc1ccn2nc(S(=O)(=O)Nc3c(F)cccc3F)nc2n1 [Flumetsulam]	> 90 µM
Cc1c(C)c2c(c(C)c1O)CC[C@@](C)(CCC[C@H](C)CCC[C@H](C)CCCC(C)C)O2 [alpha-Vitamin E]	> 50 µM
O=C1CCCCCCCCCCCCCCCO1 [Oxacycloheptadecan-2-one]	> 90 µM
COc1ccc(CN(CCN(C)C)c2ncccn2)cc1 [Thonzylamine hydrochloride]	> 50 µM
N=C(Nc1ccccc1)Nc1ccccc1 [1,3-Diphenylguanidine]	> 50 µM
CCCCCCCCCCCCCCCCCCOCC(O)CO (stereo not shown) [3-(Octadecyloxy)-1,2-propanediol]	> 50 µM
O=C(O)c1ccncc1 [Isonicotinic acid]	> 90 µM
CN1[C@@H]2CC[C@H]1CC(OC(c1ccccc1)c1ccccc1)C2 (stereo partly shown) [Benztropine methylsulfonate]	20.1 µM
O=c1ccn(C2OC(COP(=O)(O)OC3C(CO)OC(n4ccc(=O)[nH]c4=O)C3O)C(O)C2O)c(=O)[nH]1 (stereo not shown) [Uricase from Bacillus fastidiosus]	> 50 µM

same assay, conditions: rat, gh3-tre-luc cells, AC50 (uM) modified / 1000, Tox21_110001=Tox21_112345; viability, 1 nM T3 present, 24 h

Structure (SMILES)	CC50 at 24 h
ClC1=C(Cl)C2(Cl)C(CBr)CC1(Cl)C2(Cl)Cl (stereo not shown) [Bromociclen]	22.4 µM

same assay, conditions: rat, gh3-tre-luc cells, AC50 (uM) modified / 1000, Tox21_110001=Tox21_201946; viability, 1 nM T3 present, 24 h

Structure (SMILES)	CC50 at 24 h
CCOc1ccc(N)cc1 [4-Ethoxyaniline]	> 90 µM

same assay, conditions: rat, gh3-tre-luc cells, AC50 (uM) modified / 1000, Tox21_110001=Tox21_301566; viability, 1 nM T3 present, 24 h

Structure (SMILES)	CC50 at 24 h
CCCN(CC1CC1)c1c([N+](=O)[O-])cc(C(F)(F)F)cc1[N+](=O)[O-] [Profluralin]	76.2 µM

same assay, conditions: rat, gh3-tre-luc cells, AC50 (uM) modified / 1000, Tox21_110001=Tox21_301856; viability, 1 nM T3 present, 24 h

Structure (SMILES)	CC50 at 24 h
ClC1=C(Cl)C2(Cl)C(CBr)CC1(Cl)C2(Cl)Cl (stereo not shown) [Bromociclen]	36.9 µM
